Data: patent publication US20260364210A1, “COMPOSITIONS AND METHODS FOR TRANSGLUTAMINASE-MEDIATED ENDOCYTOSIS” (The Board of Trustees of the Leland Stanford Junior …, priority 2022, published 2026)
Starred links: 1 amine or outer side, 2 acyl side, 3 side chain; linkers in the order of their positions; H or OH if unused. Non-standard residues stand in square brackets, D forms with d. Residues, ends and D or L forms follow the SMILES beside them. Groups on a side chain read outwards from the residue. *: point of attachment. Biotin = O=C1N[C@H]2[C@H](CS[C@H]2CCCCC(=O)*)N1; X1 = CN(C)C(=O)/C=C/CC[C@H](N[*:1])C(=O)[*:2]; PEG4 = NCCOCCOCCOCCOCCC(=O)O; Dab = NCC[C@H](N)C(=O)O

Legend:
LRP-1 knockout MEFs = assay: Uptake of HB230 and α2M in LRP-1 knockout MEFs; type: cell-based; conditions: exogenous TRX and betamethasone, with α2M
[1] = tested on: early endosome antigen-1 (EEA-1); assay: Colocalization with early endosomes (EEA-1 antibody staining) in NRK cells; type: cell-based, rat; conditions: co-incubated with α2M, 90 min
Method: (§1) To establish the identity of these large intracellular puncta, NRK cells were transfected with RFP tagged lysosomal-associated membrane protein (LAMP-1). Wild-type and transfected cells were co-incubated with α2M and HB230 for 90 min prior to fixation. To test the hypothesis that the large puncta corresponded to early endosomes, fixed wild-type cells were stained with an antibody against early endosome antigen-1 (EEA-1).

[2] = tested on: normal rat kidney (NRK) cells; assay: Uptake of fluorescent probe by NRK cells with or without α2M; type: cell-based
Text: (§2) (C) Fluorescently tagged α2M colocalizes strongly with HB-230.
FIG. 15. Uptake of HB-2121.
Puncta of two distinct sizes were observed.
To verify that HB230 internalization was dependent on TG2 activity, HB258 was designed and synthesized as a control probe. This dihydro-analog is otherwise identical to HB230 but lacks its electrophilic warhead and is therefore unable to irreversibly bond to the active site C277 residue of TG2.

[3] = tested on: lysosomal-associated membrane protein (LAMP-1); assay: Colocalization with RFP-tagged LAMP-1 in transfected NRK cells; type: cell-based, rat; conditions: co-incubated with α2M, 90 min; large puncta
Method: as §1

trypsin = assay: Metabolism by trypsin; type: in vitro ADME; conditions: role: substrate
Text: (§3) HB-2121 is analogous to the TG2 inhibitor/probe HB-230 but with one modification; the primary amide C-terminus of HB-230 was replaced with a tertiary dimethyl amide. This change greatly enhances the gastrointestinal stability of the probe.

pepsin = assay: Metabolism by pepsin; type: in vitro ADME; conditions: role: substrate
Text: as §3

WT MEFs = assay: Uptake of HB230 and α2M in wild-type MEFs; type: cell-based; conditions: exogenous TRX and betamethasone, with α2M
Text: Low density lipoprotein (LDL) receptor-related protein 1 (LRP-1, a.k.a., (α2M receptor or CD91), a member of the LDL receptor family, is responsible for receptor-mediated endocytosis of α2M. Although this receptor is expressed on the surface of a wide range of cell types within the body, α2M endocytosis by LRP-1 is only triggered when this ubiquitous plasma protein undergoes a conformational change upon binding to its protease or non-protease ligands (Bres and Faissner, 2019). We sought to establish whether endocytosis of the ternary α2M-TG2-peptide complex was mediated by LRP-1 using pharmacologic inhibitors of clathrin mediated endocytosis.

chymotrypsin = assay: Metabolism by chymotrypsin; type: in vitro ADME; conditions: role: substrate
Text: (§4) FIGS. 14A-14B. Metabolic stability of HB-230 and HB-2121. (A) HB-230 is transformed by chymotrypsin to give the C-terminal carboxylic acid. This metabolite is subsequently cleaved by carboxypeptidase to give the tetrapeptide without the terminal phenylalanine. (B) HB-2121 is stable to both chymotrypsin and carboxypeptidase mediated metabolism.
as §3

elastase = assay: Metabolism by elastase; type: in vitro ADME; conditions: role: substrate
Text: as §3

carboxypeptidase = assay: Metabolism by carboxypeptidase; type: in vitro ADME; conditions: role: substrate, subsequent to chymotrypsin
Text: as §4, §3

α2M = assay: Co-endocytosis of HB230 and fluorescent α2M in NRK cells; type: cell-based; conditions: larger, but not smaller, puncta
Method: as §2
To obtain definitive evidence for co-endocytosis of HB230 and α2M, a fluorescent batch of α2M was prepared.

[4] = Endocytosis of fluorescent streptavidin by NRK cells; type: cell-based, rat; conditions: 2 μM HB2110, 1 μM Cy5-conjugated streptavidin
Method: FIG. 11: (A) Treating NRK cells with increasing concentrations of HB-3-003 in the presence of fluorescently tagged streptavidin leads to increased internalization of streptavidin after a 90 min treatment. (B) Quantification of dose response.
In order to determine the ability of this pathway to clear specifically targeted proteins from the extracellular environment, we synthesized a pentapeptide harboring the electrophilic warhead and a PEG-4 biotin conjugated to the DAB substituted Y amino acid (HB2110). Streptavidin is expected to bind to the biotin arm of the probe, and thus be endocytosed along with the rest of the complex as previously described. To test this hypothesis NRK cells were treated with 2 μM HB2110 and 1 μM Cy5-conjugated streptavidin.
We also synthesized the equivalent pentapeptide harbouring a Gln residue in the place of the electrophilic warhead, with biotin conjugated to the DAB substituted Y amino acid through a PEG linker (HB3-3). We then assed the ability of cells to endocytose fluorescent streptavidin in the presence of HB3-3 and α2M.

| Compound | formation of large co-stained puncta (LRP-1 knockout MEFs) | localization relative to EEA-1 [1] | uptake by NRK cells in the presence of α2M ([2]; 100 μg/mL of α2M) | uptake by NRK cells ([2]; 1 TM (so in the source) exogenous probe, 90 min) | uptake by NRK cells on supplementation with α2M ([2]; NRK cells supplemented with increasing α2M) | co-localization with RFP-tagged LAMP-1 [3] | resistance to metabolism by trypsin (trypsin) | resistance to metabolism by pepsin (pepsin) | internalization of ternary complex (WT MEFs) | metabolism by chymotrypsin (chymotrypsin) | resistance to metabolism by elastase (elastase) | metabolism by carboxypeptidase (carboxypeptidase) | overlap with fluorescent α2M (α2M) | colocalization of Cy5-streptavidin with α2M [4] |
| --- | --- | --- | --- | --- | --- | --- | --- | --- | --- | --- | --- | --- | --- | --- |
| CC(=O)N1CCC[C@H]1C(=O)N[C@@H](CC/C=C/C(=O)N(C)C)C(=O)N[C@@H](CCNC(=O)CCCCC[N+]1=C(/C=C/C=C/C=C2/N(C)c3ccc(S(=O)(=O)O)cc3C2(C)C)C(C)(C)c2cc(S(=O)(=O)[O-])ccc21)C(=O)N1CCC[C@H]1C(=O)N[C@@H](Cc1ccccc1)C(N)=O [HB-230, AcPro-HWE-(Dab-SCy5)-Pro-Phe] | marked defect in their ability to form large co-stained puncta | appear in distinct sub-cellular compartments for the most part | robustly taken up | robust uptake | strong dose-dependent increase in uptake of HB230 up to ~100 μg/ml | strongly co-localizes with RFP-tagged LAMP-1 in the large puncta | resistance to metabolism | resistance to metabolism | internalized the ternary complex | enzymatic deamidation at the C-terminus (CONH2→CO2H) | resistance to metabolism | subsequent cleavage of the C-terminal phenylalanine | strong overlap | – |
| CC(=O)N1CCC[C@H]1C(=O)N[C@@H](CC/C=C/C(=O)N(C)C)C(=O)N[C@@H](CCNC(=O)CCOCCOCCOCCOCCNC(=O)CCCC[C@@H]1SC[C@@H]2NC(=O)N[C@@H]21)C(=O)N1CCC[C@H]1C(=O)N[C@@H](Cc1ccccc1)C(N)=O [HB-2110] (Ac-P[X1][Dab]([PEG4-Biotin])PF-NH2) | – | – | – | – | – | – | – | – | – | – | – | – | – | found to colocalize with α2M in the lysosomal compartment |
